The source made the active and inactive calls.
Tests used:
Mus musculus [1] = assay: Anticonvulsant activity in po dosed mouse assessed as blockade of supramaximal electroshock-induced […] seizure; assay type: functional
Mus musculus [2] = assay: Muscle relaxant activity in po dosed mouse assessed as increase in strychnine-induced persistant convulsive threshold; assay type: functional
Rattus norvegicus = assay: Antianxiety activity in ip dosed rat assessed as effect on increase in punished responses administered qd for 5 days measured every day for 5 days; assay type: functional
Mus musculus [3] = assay: Muscle relaxant activity in po dosed mouse assessed as blockade of pentylenetetrazol-induced tonic extensor seizure; assay type: functional
Mus musculus [4] = assay: Sedative-hypnotic activity in po dosed mouse assessed as increase in pentylenetetrazol-induced persistent-convulsive threshold; assay type: functional, organism-based
Mus musculus [5] = assay: Hypnotic activity in po dosed mouse assessed as increase in pentylenetetrazol-induced persistent-convulsive threshold; assay type: functional, organism-based

Row | Compound | Activity (Mus musculus [1]) | Activity (Mus musculus [2]) | Activity (Rattus norvegicus) | Activity (Mus musculus [3]) | Activity (Mus musculus [4]) | Activity (Mus musculus [5])
1 | CN1CC(c2ccccc2)C/C1=N\C(=O)Nc1c(Cl)cccc1Cl (stereo unspecified) | inactive | inactive | inactive | inactive | inactive | inactive
2 | CCCCCCCCCCCCCCCCCCNC(=O)/N=C1\CCCN1 | – | – | inactive | – | – | –
3 | CCOC(=O)c1ccc(NC(=O)/N=C2\CCCN2C)cc1 | inactive | inactive | inactive | inactive | – | –
4 | Cc1cccc(C)c1NC(=O)/N=C1\CCCCCN1 | inactive | inactive | inactive | inactive | inactive | inactive
5 | Cc1cccc(C)c1NC(=O)/N=C1\CC(C)(C)CN1C | inactive | inactive | inactive | inactive | inactive | inactive
6 | Cc1cccc(C)c1NC(=O)/N=C1\CC(c2ccccc2)CN1C (stereo unspecified) | inactive | inactive | inactive | inactive | inactive | inactive
7 | CN1CC(c2ccccc2)C/C1=N\C(=O)Nc1ccccc1 (stereo unspecified) | inactive | inactive | inactive | inactive | inactive | inactive
8 | CCOc1ccc(NC(=O)/N=C2\CCCN2C)cc1 | inactive | inactive | inactive | inactive | – | –
9 | O=C(/N=C1\CCCN1Cc1ccccc1)Nc1cccc(Cl)c1 | inactive | inactive | inactive | inactive | inactive | inactive
10 | CN1CC(C)(C)C/C1=N\C(=O)Nc1ccccc1 | inactive | inactive | inactive | inactive | inactive | inactive
11 | CN1CCC/C1=N\C(=O)Nc1ccc(N(C)C)cc1 | inactive | inactive | inactive | inactive | – | –
12 | CN1CCC/C1=N\C(=O)Nc1cccc([N+](=O)[O-])c1 | – | – | inactive | – | – | –
13 | O=C(/N=C1\CCCN1Cc1ccccc1)Nc1cccc(C(F)(F)F)c1 | inactive | inactive | inactive | inactive | inactive | inactive
14 | CN1CCC/C1=N\C(=O)Nc1ccc(Br)cc1 | inactive | inactive | inactive | inactive | – | –
15 | CN1CCC/C1=N\C(=O)Nc1c(Br)cc(Br)cc1Br | – | Active | – | Active | – | –
16 | CN1CCCCC/C1=N\C(=O)Nc1cccc(Cl)c1 | inactive | inactive | inactive | inactive | inactive | inactive
17 | CCOc1ccccc1NC(=O)/N=C1\CCCN1C | Active | Active | Active | Active | Active | Active
18 | CN1CC(c2ccccc2)C/C1=N\C(=O)Nc1cccc(Cl)c1 (stereo unspecified) | inactive | inactive | inactive | inactive | inactive | inactive
19 | Cc1ccc(Cl)c(C)c1NC(=O)/N=C1\CCCN1C | – | Active | – | Active | – | –
20 | CC1/C(=N\C(=O)Nc2ccccc2)N(C)CC1c1ccccc1 (stereo unspecified) | inactive | inactive | inactive | inactive | inactive | inactive
21 | CN1CCC/C1=N\C(=O)Nc1ccc(S(C)(=O)=O)cc1 | inactive | inactive | inactive | inactive | – | –
22 | CC(C)c1ccccc1NC(=O)/N=C1\CCCN1C | Active | Active | Active | Active | Active | Active
23 | CN1CC(C)(C)C/C1=N\C(=O)Nc1c(Cl)cccc1Cl | inactive | inactive | inactive | inactive | inactive | inactive
24 | CN1CCCC/C1=N\C(=O)Nc1ccccc1 | inactive | inactive | inactive | inactive | inactive | inactive
25 | CN1CCC/C1=N\C(=O)Nc1ccc(C(C)(C)C)cc1 | inactive | inactive | inactive | inactive | – | –
26 | Cc1cc(C)c(NC(=O)/N=C2\CCCN2C)c(C)c1 | – | Active | – | Active | – | –

Row | Compound | Activity (Mus musculus [1]) | Activity (Mus musculus [2]) | Activity (Rattus norvegicus) | Activity (Mus musculus [3]) | Activity (Mus musculus [4]) | Activity (Mus musculus [5])
27 | CN1CCC/C1=N\C(=S)Nc1ccc([N+](=O)[O-])cc1 | inactive | inactive | inactive | inactive | inactive | inactive
28 | CN1CCC/C1=N\C(=O)Nc1ccccc1Cl | Active | Active | Active | Active | Active | Active
29 | CN1CCCC/C1=N\C(=O)Nc1ccc(C(F)(F)F)cc1 | inactive | inactive | inactive | inactive | inactive | inactive
30 | CN1CC(C)(C)C/C1=N\C(=O)Nc1cccc(Cl)c1 | inactive | inactive | inactive | inactive | inactive | inactive
31 | Cc1cccc(C)c1NC(=O)/N=C1\CCC(C)N1C (stereo unspecified) | inactive | inactive | inactive | inactive | inactive | inactive
32 | CC1/C(=N\C(=O)Nc2cccc(Cl)c2)N(C)CC1c1ccccc1 (stereo unspecified) | inactive | inactive | inactive | inactive | inactive | inactive
33 | O=C(/N=C1\CCCN1)Nc1ccccc1 | – | Active | – | Active | – | –
34 | Cc1ccc(NC(=O)/N=C2\CCCN2C)cc1 | inactive | inactive | inactive | inactive | – | –
35 | CN1CCC/C1=N\C(=O)Nc1ccc(OCc2ccccc2)cc1 | inactive | inactive | inactive | inactive | – | –
36 | O=C1NC(=O)C(c2ccccc2)(c2ccccc2)N1 | Active | – | – | – | – | –
37 | O=C(/N=C1\CCCN1)NC12CC3CC(CC(C3)C1)C2 | – | – | inactive | – | – | –
38 | CN1CCC/C1=N\C(=O)Nc1ccc(O)cc1 | inactive | inactive | inactive | inactive | – | –
39 | CN1CCCCC/C1=N\C(=O)Nc1c(Cl)cccc1Cl | inactive | inactive | inactive | inactive | inactive | inactive
40 | CN1CCCCC/C1=N\C(=O)Nc1ccccc1 | inactive | inactive | inactive | inactive | inactive | inactive
41 | Cc1cc(N(C)C)cc(C)c1NC(=O)/N=C1\CCCN1C | – | Active | – | Active | – | –
42 | O=C(/N=C1\CCCCCN1)Nc1c(Cl)cccc1Cl | inactive | inactive | inactive | inactive | inactive | inactive
43 | CN1CCC/C1=N\C(=O)Nc1ccccc1C(F)(F)F | Active | Active | Active | Active | Active | Active
44 | CN1CCC/C1=N\C(=O)Nc1ccc(C(F)(F)F)cc1 | – | – | inactive | – | – | –
45 | CN1CCC/C1=N\C(=O)Nc1ccc(F)cc1 | inactive | inactive | inactive | inactive | – | –
46 | CN1CCC/C1=N\C(=O)Nc1ccc(Cl)cc1 | inactive | inactive | inactive | inactive | – | –
47 | CSc1ccc(NC(=O)/N=C2\CCCN2C)cc1 | inactive | inactive | inactive | inactive | – | –
48 | O=C(/N=C1\CCCN1)NC1CCCCC1 | – | – | inactive | – | – | –
49 | CN1CCC/C1=N\C(=O)Nc1c(Cl)cc(Cl)cc1Cl | – | Active | – | Active | – | –
50 | CN1CCC/C1=N\C(=O)Nc1cc(C(F)(F)F)cc(C(F)(F)F)c1 | Active | – | – | – | – | –
51 | COc1ccc(NC(=O)/N=C2\CCCN2C)cc1 | inactive | inactive | inactive | inactive | – | –

— ChEMBL document CHEMBL3243921, “2-Pyrrolidinylideneureas, a new class of central nervous system agents” (J Med Chem, 1978)
